Test results published in US20250282794A1 (CURADEV PHARMA LTD, priority 2022, published 2025).

Each molecule was assayed against recombinant full length HPK-1 enzyme (Homo sapiens (Human), UniProt Q92918) (assay: HPK-1 biochemical enzyme assay (ADP-Glo kinase inhibition)). Settings: recombinant full length HPK-1 6.8 nM, 10 μM ATP, 12.5 μM MBP, 30 mins at 25° C.
Outline: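 Recombinant full-length human HPK-1 (6.8 nM) incubated 30 min at 25° C. with 10 μM ATP and 12.5 μM swine MBP in 40 mM Tris pH 7.4, 20 mM MgCl2, 50 μM DTT, 0.1 mg/mL BSA. ADP measured by ADP-Glo; IC50 from 10 concentrations, normalized to no-enzyme and vehicle controls.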

recombinant full length HPK-1 enzyme, sequence (Q92918 whole entry, species assumed): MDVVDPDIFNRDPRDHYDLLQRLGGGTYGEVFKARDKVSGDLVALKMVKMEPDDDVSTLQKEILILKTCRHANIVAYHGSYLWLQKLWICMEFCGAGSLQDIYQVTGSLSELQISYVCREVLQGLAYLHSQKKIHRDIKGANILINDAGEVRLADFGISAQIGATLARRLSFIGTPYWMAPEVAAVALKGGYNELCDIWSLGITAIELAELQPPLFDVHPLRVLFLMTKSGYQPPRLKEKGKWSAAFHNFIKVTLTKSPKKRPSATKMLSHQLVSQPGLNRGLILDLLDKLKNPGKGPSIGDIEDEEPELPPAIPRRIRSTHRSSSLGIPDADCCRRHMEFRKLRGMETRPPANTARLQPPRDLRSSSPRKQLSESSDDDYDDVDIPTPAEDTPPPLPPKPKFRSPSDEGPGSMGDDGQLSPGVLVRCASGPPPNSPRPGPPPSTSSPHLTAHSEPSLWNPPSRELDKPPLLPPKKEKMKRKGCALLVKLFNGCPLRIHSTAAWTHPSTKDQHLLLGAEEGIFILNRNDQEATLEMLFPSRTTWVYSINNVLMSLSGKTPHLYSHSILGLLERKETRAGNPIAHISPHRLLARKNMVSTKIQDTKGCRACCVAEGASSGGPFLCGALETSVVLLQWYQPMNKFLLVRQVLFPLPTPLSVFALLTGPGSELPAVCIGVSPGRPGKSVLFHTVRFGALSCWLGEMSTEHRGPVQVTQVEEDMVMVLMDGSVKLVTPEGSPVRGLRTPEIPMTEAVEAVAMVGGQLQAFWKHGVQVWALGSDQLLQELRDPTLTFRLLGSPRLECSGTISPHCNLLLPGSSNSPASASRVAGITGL

| Compound | IC50 [nM] |
| --- | --- |
| Cc1c(Nc2cc[nH]c(=O)c2C(=O)Nc2ccc(N3CCN(c4ccncc4)CC3)cc2)cnc2c1NCCO2 [Example 288, 4-((8-methyl-2,3-dihydro-1H-pyrido[2,3-b][1,4]oxazin-7-yl)amino)-2-oxo-N-(4-(4-(pyridin-4-yl)piperazin-1-yl)phenyl)-1,2-dihydropyridine-3-carboxamide] | ≤ 10 |
| COCCN(C)C(=O)N1CCN(c2ccc(NC(=O)c3c(Nc4cnc5c(c4C)NCCO5)cc[nH]c3=O)cc2)CC1 [Example 290, N-(2-methoxyethyl)-N-methyl-4-(4-(4-((8-methyl-2,3-dihydro-1H-pyrido[2,3-b][1,4]oxazin-7-yl)amino)-2-oxo-1,2-dihydropyridine-3-carboxamido)phenyl)piperazine-1-carboxamide] | ≤ 10 |
| Cc1c(Nc2cc[nH]c(=O)c2C(=O)Nc2ccc(N3CCN(C)CC3)c(N(C)C)c2)cnc2c1NCCO2 [Example 291, N-(3-(dimethylamino)-4-(4-methylpiperazin-1-yl)phenyl)-4-((8-methyl-2,3-dihydro-1H-pyrido[2,3-b][1,4]oxazin-7-yl)amino)-2-oxo-1,2-dihydropyridine-3-carboxamide] | 10 to 100 |
| Cc1c(Nc2cc[nH]c(=O)c2C(=O)Nc2ccc(N3CCN(C4CCN(C)CC4)CC3)cc2)cnc2c1NCCO2 [Example 292, 4-((8-methyl-2,3-dihydro-1H-pyrido[2,3-b][1,4]oxazin-7-yl)amino)-N-(4-(4-(1-methylpiperidin-4-yl)piperazin-1-yl)phenyl)-2-oxo-1,2-dihydropyridine-3-carboxamide] | ≤ 10 |
| Cc1c(Nc2cc[nH]c(=O)c2C(=O)Nc2ccc(N3CCN(C(=O)[C@@H]4C[C@@H]4F)CC3)cc2)cnc2c1NCCO2 [Example 293, N-(4-(4-((1S,2S)-2-fluorocyclopropane-1-carbonyl)piperazin-1-yl)phenyl)-4-((8-methyl-2,3-dihydro-1H-pyrido[2,3-b][1,4]oxazin-7-yl)amino)-2-oxo-1,2-dihydropyridine-3-carboxamide] | ≤ 10 |
| Cc1c(Nc2cc[nH]c(=O)c2C(=O)Nc2ccc(N3CCN(C)CC3)c(N)c2)cnc2c1NCC(C)O2 (stereo not drawn) [Example 294, N-(3-amino-4-(4-methylpiperazin-1-yl)phenyl)-4-((3,8-dimethyl-2,3-dihydro-1H-pyrido[2,3-b][1,4]oxazin-7-yl)amino)-2-oxo-1,2-dihydropyridine-3-carboxamide] | ≤ 10 |
| CNc1cc(NC(=O)c2c(Nc3cnc4c(c3C)NCCO4)cc[nH]c2=O)ccc1N1CCN(C)CC1 [Example 295, 4-((8-methyl-2,3-dihydro-1H-pyrido[2,3-b][1,4]oxazin-7-yl)amino)-N-(3-(methylamino)-4-(4-methylpiperazin-1-yl)phenyl)-2-oxo-1,2-dihydropyridine-3-carboxamide] | 10 to 100 |
| Cc1c(Nc2cc[nH]c(=O)c2C(=O)Nc2ccc3nc(NC(=O)[C@@H]4C[C@@H]4F)sc3c2)cnc2c1NCCO2 [Example 296, N-(2-((1S,2S)-2-fluorocyclopropane-1-carboxamido)benzo[d]thiazol-6-yl)-4-((8-methyl-2,3-dihydro-1H-pyrido[2,3-b][1,4]oxazin-7-yl)amino)-2-oxo-1,2-dihydropyridine-3-carboxamide] | 100 to 1000 |
| Cc1c(Nc2cc[nH]c(=O)c2C(=O)Nc2ccc3sc(NC(=O)[C@@H]4C[C@@H]4F)nc3c2)cnc2c1NCCO2 [Example 297, N-(2-((1S,2S)-2-fluorocyclopropane-1-carboxamido)benzo[d]thiazol-5-yl)-4-((8-methyl-2,3-dihydro-1H-pyrido[2,3-b][1,4]oxazin-7-yl)amino)-2-oxo-1,2-dihydropyridine-3-carboxamide] | 100 to 1000 |
| Cc1c(Nc2cc[nH]c(=O)c2C(=O)Nc2ccc(N3CCN(CC(=O)N(C)C)CC3)cc2)cnc2c1NCCO2 [Example 298, N-(4-(4-(2-(dimethylamino)-2-oxoethyl)piperazin-1-yl)phenyl)-4-((8-methyl-2,3-dihydro-1H-pyrido[2,3-b][1,4]oxazin-7-yl)amino)-2-oxo-1,2-dihydropyridine-3-carboxamide] | ≤ 10 |
| CN1CCN(c2ccc(NC(=O)c3c(Nc4cnc5c(c4C#N)NCCO5)cc[nH]c3=O)cc2)CC1 [Example 299, 4-((8-cyano-2,3-dihydro-1H-pyrido[2,3-b][1,4]oxazin-7-yl)amino)-N-(4-(4-methylpiperazin-1-yl)phenyl)-2-oxo-1,2-dihydropyridine-3-carboxamide] | 10 to 100 |
| Cc1c(Nc2cc[nH]c(=O)c2C(=O)Nc2ccc(N3CCC(C(C)(C)O)CC3)cc2)cnc2c1NCCO2 [Example 300, N-(4-(4-(2-hydroxypropan-2-yl)piperidin-1-yl)phenyl)-4-((8-methyl-2,3-dihydro-1H-pyrido[2,3-b][1,4]oxazin-7-yl)amino)-2-oxo-1,2-dihydropyridine-3-carboxamide] | ≤ 10 |
| Cc1c(Nc2cc[nH]c(=O)c2C(=O)Nc2ccc(N3CCC(C)(CO)CC3)cc2)cnc2c1NCCO2 [Example 301, N-(4-(4-(hydroxymethyl)-4-methylpiperidin-1-yl)phenyl)-4-((8-methyl-2,3-dihydro-1H-pyrido[2,3-b][1,4]oxazin-7-yl)amino)-2-oxo-1,2-dihydropyridine-3-carboxamide] | 10 to 100 |

Continued, values first:

| IC50 [nM] | Compound |
| --- | --- |
| ≤ 10 | Cc1c(Nc2cc[nH]c(=O)c2C(=O)Nc2ccc(N3CCC(C(C)O)CC3)cc2)cnc2c1NCCO2 (stereo not drawn) [Example 302, N-(4-(4-(1-hydroxyethyl)piperidin-1-yl)phenyl)-4-((8-methyl-2,3-dihydro-1H-pyrido[2,3-b][1,4]oxazin-7-yl)amino)-2-oxo-1,2-dihydropyridine-3-carboxamide] |
| ≤ 10 | Cc1c(Nc2cc[nH]c(=O)c2C(=O)Nc2ccc(N3CCN(C(=O)c4ccn[nH]4)CC3)cc2)cnc2c1NCCO2 [Example 303, N-(4-(4-(1H-pyrazole-5-carbonyl)piperazin-1-yl)phenyl)-4-((8-methyl-2,3-dihydro-1H-pyrido[2,3-b][1,4]oxazin-7-yl)amino)-2-oxo-1,2-dihydropyridine-3-carboxamide] |
| ≤ 10 | Cc1c(Nc2cc[nH]c(=O)c2C(=O)Nc2ccc(N3CCN(C(=O)C4CC(C)(C)C4)CC3)cc2)cnc2c1NCCO2 [Example 304, N-(4-(4-(3,3-dimethylcyclobutane-1-carbonyl)piperazin-1-yl)phenyl)-4-((8-methyl-2,3-dihydro-1H-pyrido[2,3-b][1,4]oxazin-7-yl)amino)-2-oxo-1,2-dihydropyridine-3-carboxamide] |
| ≤ 10 | Cc1c(Nc2cc[nH]c(=O)c2C(=O)Nc2ccc(N3CCN(C(=O)C4CC4C)CC3)cc2)cnc2c1NCCO2 (stereo not drawn) [Example 305, 4-((8-methyl-2,3-dihydro-1H-pyrido[2,3-b][1,4]oxazin-7-yl)amino)-N-(4-(4-(2-methylcyclopropane-1-carbonyl)piperazin-1-yl)phenyl)-2-oxo-1,2-dihydropyridine-3-carboxamide] |
| ≤ 10 | Cc1c(Nc2cc[nH]c(=O)c2C(=O)Nc2ccc(N3CCN(C(=O)C4(C)CCC4)CC3)cc2)cnc2c1NCCO2 [Example 306, 4-((8-methyl-2,3-dihydro-1H-pyrido[2,3-b][1,4]oxazin-7-yl)amino)-N-(4-(4-(1-methylcyclobutane-1-carbonyl)piperazin-1-yl)phenyl)-2-oxo-1,2-dihydropyridine-3-carboxamide] |
